Measured values: patent US20250282770A1, “BIOLUMINESCENT PROBES TO TRACK STEM CELLS IN VIVO” (THE BOARD OF TRUSTEES OF THE UNIVERSITY OF ILLINOIS, priority 2024, published 2025)

How the values were obtained:
[1] = test system: intracellular levels of NO; assay: Intracellular NO levels in 4T1-Luc cells with BL660NO probe; assay type: cell-based, murine; settings: 30 minutes
Protocol: FIG. 14A-D. a) 4T1-Luc cells administered BL660NO (NO-responsive bioluminescent probe; 39 μM) after incubation with DEA-NONOate (50 μM) for 30 minutes. b) Quantified data from a. c) 4T1-Luc cells administered BL660NO (20 μM) after incubation with L-NMMA (1 mM) for 30 minutes. d) Quantified data from c. Statistical analysis was performed using two-tailed Student's t-test with Welch's correction (α=0.05), *ρ<0.05.

[2] = target: T1, ALDH1A1 (Mus musculus, UniProt P24549); assay: Validation of ALDH-mediated activation of AlDeLuc in heterotopic breast cancer model via DEAB inhibition; assay type: in vivo, BALB/c mice; set-up: from tissue; host or cells: 4T1-Luc tumours in BALB/c mice
T1 sequence (P24549 1-501): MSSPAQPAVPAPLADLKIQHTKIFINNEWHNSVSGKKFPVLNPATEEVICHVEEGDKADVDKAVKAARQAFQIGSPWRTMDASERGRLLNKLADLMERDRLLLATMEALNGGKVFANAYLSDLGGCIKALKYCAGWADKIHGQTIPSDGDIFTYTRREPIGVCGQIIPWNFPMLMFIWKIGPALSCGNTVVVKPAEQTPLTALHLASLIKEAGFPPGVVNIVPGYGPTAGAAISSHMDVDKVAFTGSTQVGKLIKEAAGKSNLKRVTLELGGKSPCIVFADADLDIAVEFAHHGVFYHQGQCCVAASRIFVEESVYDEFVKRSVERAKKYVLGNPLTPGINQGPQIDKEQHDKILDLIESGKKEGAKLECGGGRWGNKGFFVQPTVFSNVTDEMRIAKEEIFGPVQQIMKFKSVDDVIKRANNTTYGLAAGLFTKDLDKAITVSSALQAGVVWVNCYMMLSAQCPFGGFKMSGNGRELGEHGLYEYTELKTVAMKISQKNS
Protocol: Validation of ALDH-mediated Activation of AlDeLuc in a Heterotopic Breast Cancer Model via DEAB Inhibition. BALB/c mice bearing 4T1-Luc tumors were anesthetized using isoflurane (1-3% for maintenance; up to 5% for induction) in oxygen from a precision vaporizer. After testing to ensure animals are fully under anesthesia, each mouse was administered AlDeLuc via retro-orbital injection (0.55 mg/kg, 1:19 v/v DMSO:PBS). Images were captured using the IVIS imaging system 40 minutes after injection. Bioluminescence light was captured in open mode (no filters were applied). ROIs were drawn around each tumor and summed for each animal. The signal intensity was quantified using the Living Image Analysis Software. After two days, the same animals were anesthetized and co-administered a solution of AlDeLuc and DEAB (0.55 mg/kg and 93 mg/kg respectively, 1:19 v/v DMSO:PBS). After the allotted 40 minutes, the images were captured using the IVIS imaging system. Bioluminescence was collected in open mode (no filters were applied). ROIS were drawn around each tumor and summed for each animal. The signal intensity was quantified using the Living Image Analysis Software.

[3] = target: T1, ALDH1A1; assay: DEAB inhibition of AlDeLuc activation in 4T1 cells; assay type: cell-based, murine; set-up: host or cells: 4T1 murine mammary carcinoma cells; settings: DEAB 500 μM; AlDeLuc 100 μM; 4T1 lysates
Protocol: Validation of ALDH-Mediated Activation of AlDeLuc in Murine Breast Cancer Cells. 4T1 cells were cultured in T75 culture flasks. After two days, cells had become ˜90% confluent. An aliquot of RPMI 1640 media (1 mL) was removed from each flask and replaced with either DEAB ([…], 0.5% DMSO) or vehicle (0.5% DMSO). After incubation for one hour, the solutions were aspirated, washed with PBS, and resuspended in fresh RPMI 1640 media (9 mL). Each flask was then incubated with the AlDeLuc (100 μM) and DEAB (500 μM) or AlDeLuc (100 μM) and vehicle (DMSO), each with a final concentration of 1% DMSO. After 60 minutes, this solution was aspirated, washed with fresh PBS, and detached from the culture flasks. The cells were then transferred to a 15 mL centrifuge tube and pelleted at 1000 rpm for 5 minutes at room temp. The cells were resuspended in PBS along with 10% protease inhibitor solution (1 protease inhibitor mini tablet per 10 mL of PBS, Pierce, Thermo Fisher Scientific) and sonicated on ice for 2.5 minutes (pulse 01, 01, 40%). The cell debris was removed via centrifugation and the supernatant was plated ([…]) into a 96-well plate (n=4 for each condition). […] ROIs were drawn around each well and the signal intensity was quantified using the Living Image Analysis software.

[4] = test system: ALDH1A1 activity in 4T1 cells; assay: Effect of nitric oxide (DETA NONOate) on ALDH1A1 activity in 4T1 cells using AlDeLuc; assay type: cell-based, murine; settings: DETA NONOate 50 μM, 2-day treatment; AlDeLuc 2 μM
Protocol: Exploring the Effect of Nitric Oxide on ALDH1A1 activity in 4T1 Cells Using AlDeLuc. 4T1 cells were cultured in T75 flasks, and once they reached ˜30% confluency (1 day), the media was removed and replaced with fresh RPMI 1640 media supplemented with either DETA NONOate (50 μM) or vehicle (media). After 24 hours, the media was aspirated, and the cells were treated once more with RPMI 1640 media containing either DETA NONOate (50 μM) or vehicle (media). After […], the suspension was removed and cells were treated with AlDeLuc (2 μM, final concentration of 0.01% DMSO). After 60 minutes the AlDeLuc solution was aspirated, washed with fresh PBS, and detached from the culture flasks. The cells were then transferred to a 15 mL centrifuge tube and pelleted at 1000 rpm for 5 minutes at room temp. The cells were resuspended in PBS along with 10% protease inhibitor solution (1 protease inhibitor mini tablet per 10 mL of PBS, Pierce, Thermo Fisher Scientific) and sonicated on ice for 2.5 minutes (pulse 01, 01, 40%). The cell debris was removed via centrifugation and the supernatant was plated (95 μL/well) into a 96-well plate (n=4 for each condition). Each well was treated with luciferase (5 μL, 1 mg/mL) and immediately imaged using the IVIS imaging system in open mode. ROIs were drawn around each well and the signal intensity was quantified using the Living Image Analysis software.

[5] = test system: ALDH1A1; assay: Immunohistochemical analysis of excised 4T1-Luc tumors; assay type: in vivo, BALB/c mice; settings: L-NMMA 50 mg/kg versus vehicle; high-fat diet; opposite to reduced iNOS
Protocol: (§1) Finally, to examine how NO influences ALDH1A1 activity in vivo we placed BALB/c mice (female, 5-7 weeks old) on a high-fat diet for 40 weeks to induce an inflammatory response through elevated NO production. This period consists of a ˜20-week priming period prior to inoculation of the animals with 4T1-Luc cells at the mammary fat pad. At this point, the mice were randomized into two groups. The treatment group was administered L-NMMA (50 mg/kg), whereas the control group received water via oral gavage for 20 days. The day after the final treatment, mice from both conditions were treated systemically with AlDeLuc, and the bioluminescence was monitored (FIG. 5e). […] At the completion of the diet study, animals were sacrificed, and their tumors were excised for further immunohistochemical analysis.

[6] = test system: iNOS; assay: as above; assay type: in vivo, BALB/c mice; settings: L-NMMA 50 mg/kg versus vehicle; high-fat diet
Text: as §1, with “Diet-Induced Inflammation Modulates ALDH1A1 Activity in a Murine Model of Breast Cancer. Finally,” for “Finally,”, “analysis. Specifically, we determined that iNOS expression in tumors treated with L-NMMA was reduced. […] That is, reducing the levels of NO has the effect of increasing ALDH1A1 activity (as determined with AlDeLuc), as well as overall protein expression levels (FIG. 5h).” for “analysis.”

[7] = test system: ALDH1A1 activity in 4T1 cells; assay: Influence of L-NMMA on ALDH1A1 activity in 4T1 cells using AlDeLuc; assay type: cell-based, murine; settings: L-NMMA 1 mM; AlDeLuc 50 μM
Protocol: Influence of L-NMMA on ALDH1A1 activity in 4T1 Cells Using AlDeLuc. 4T1 cells were cultured in T75 culture flasks. After two days, cells had become ˜90% confluent. The media was aspirated and 9 mL of fresh media was added. The flasks were then treated with L-NMMA (1 mM, cell culture water) or vehicle (cell culture water). After incubation for 60 minutes, the solutions were aspirated, washed with PBS, and resuspended in fresh RPMI 1640 media (9 mL). AlDeLuc was added to each flask (50 M, 5% v/v DMSO:PBS) for a final concentration of 0.5% DMSO per flask. After 60 minutes this solution was aspirated, washed with fresh PBS, and detached from the culture flasks. The cells were then transferred to a 15 mL centrifuge tube and pelleted at 1000 rpm for 5 minutes at room temp. The cells were resuspended in PBS along with 10% protease inhibitor solution (1 protease inhibitor mini tablet per 10 mL of PBS, Pierce, Thermo Fisher Scientific) and sonicated on ice for 2.5 minutes (pulse 01, 01, 40%). The cell debris was removed via centrifugation and the supernatant was plated (95 L/well) into a 96-well plate (n=4 for each condition). Each well was treated with luciferase (5 μL, 1 mg/mL) and immediately imaged using the IVIS imaging system in open mode. ROIs were drawn around each well and the signal intensity was quantified using the Living Image Analysis software.

[8] = test system: ALDH1A1 activity; assay: High-fat diet inflammatory model, orthotopic 4T1-Luc tumors, AlDeLuc imaging after L-NMMA; assay type: in vivo, BALB/c mice; settings: L-NMMA 50 mg/kg oral gavage 20 days, AlDeLuc 0.55 mg/kg
Protocol: as §1
Generation of an Orthotopic 4T1-Luc Breast Cancer Model for Diet Studies. Female BALB/c mice (˜6 weeks old) were inoculated with 4T1-Luc cells (50 μL of 1×10^5 cells in 1:1 v/v serum-free RPMI 1640 media and Matrigel) via subcutaneous injections into the mammary fat pad. Tumor volumes were measured using the caliper method every three days. Body weight was measured daily over the course of the experiment.

[9] = test system: ALDH1A1 activity in 4T1 cells; assay: Influence of interferon-gamma on ALDH1A1 activity in 4T1 cells using AlDeLuc; assay type: cell-based, murine; settings: INF-γ 26.8 ng/mL, 12 hours; AlDeLuc 50 μM
Protocol: Influence of Interferon-gamma (INF-γ) on ALDH1A1 activity in 4T1 Cells Using AlDeLuc. 4T1 cells were cultured in T75 culture flasks. After two days, cells had become ˜90% confluent. An aliquot of RPMI 1640 was removed (26.8 μL) and the flasks were then treated with INF-γ (26.8 μL of […] stock in PBS, 26.8 ng/mL final conc.) or vehicle (26.8 μL PBS). After 12 hours, the solutions were aspirated, washed with PBS, and resuspended in fresh RPMI 1640 media (9 mL). AlDeLuc was added to each flask ([…], 5% v/v DMSO:PBS) for a final concentration of 0.5% DMSO per flask. After 60 minutes this solution was aspirated, washed with fresh PBS, and detached from the culture flasks. The cells were then transferred to a 15 mL centrifuge tube and pelleted at 1000 rpm for 5 minutes at room temp. The cells were resuspended in PBS along with 10% protease inhibitor solution (1 protease inhibitor mini tablet per 10 mL of PBS, Pierce, Thermo Fisher Scientific) and sonicated on ice for 2.5 minutes (pulse 01, 01, 40%). The cell debris was removed via centrifugation and the supernatant was plated (95 μL/well) into a 96-well plate (n=4 for each condition). Each well was treated with luciferase (5 μL, 1 mg/mL) and immediately imaged using the IVIS imaging system in open mode. ROIs were drawn around each well and the signal intensity was quantified using the Living Image Analysis software.

In the case of `CCN(CC)/[N+]([O-])=N/O.CCNCC` [DEA NONOate], the “intracellular levels of NO” value ([1]; DEA NONOate 50 μM) was “increasing”.
In the case of `CCN(CC)c1ccc(C=O)cc1` [DEAB, diethylaminobenzaldehyde], the “difference in total luminescent counts, AlDeLuc alone versus DEAB co-treated” value ([2]; DEAB 93 mg/kg, AlDeLuc 0.55 mg/kg) was 2.8 fold, the total luminescent counts ([2]; co-treated DEAB 93 mg/kg and AlDeLuc 0.55 mg/kg, 40 min) was 0.78±0.28×10^4 and the “diminished bioluminescent signal relative to uninhibited cells” value [3] was “approximately 5 fold”.
`NCCN(CCN)/[N+]([O-])=N/O` [DETA NONOate] was tested, and the bioluminescence decreased [4] was 1.3 fold.
With `CNC(=N)NCCC[C@H](N)C(=O)O` [L-NMMA] the “ALDH1A1 expression in tumors” value [5] was “opposite trend”, the “intracellular levels of NO” value ([1]; L-NMMA 1 mM) was “decreasing” and the “iNOS expression in tumors” value [6] was “reduced”. The “bioluminescence higher compared to vehicle-treated cells” value [7] was 2.4 fold, the “enhancement in total luminescent counts compared to control group” value [8] was 5.9 fold and the total luminescent counts ([8]; 40 min) was 9.9±2.7×10^4.
“IFN-γ: interferon gamma, shown to stimulate NO production via inducible nitric oxide synthase” was tested, and the “bioluminescence signal lower relative to vehicle-treated control cells” value [9] was 3.2 fold.
